The source made the active and inactive calls. No cut-off for these calls is given here.
Assays:
[1] = system: Mycobacterium tuberculosis; assay: Growth inhibition of Mycobacterium tuberculosis H37Rv at 0.05 ug/mL after 21 days; format: functional, organism-based
[2] = target: T1, Arylamine N-acetyltransferase (Mycolicibacterium smegmatis, UniProt O86309); assay: Inhibition of Mycobacterium smegmatis recombinant NAT expressed in Escherichia coli BL21 at 0.5 mg/mL
T1 sequence (O86309 whole entry): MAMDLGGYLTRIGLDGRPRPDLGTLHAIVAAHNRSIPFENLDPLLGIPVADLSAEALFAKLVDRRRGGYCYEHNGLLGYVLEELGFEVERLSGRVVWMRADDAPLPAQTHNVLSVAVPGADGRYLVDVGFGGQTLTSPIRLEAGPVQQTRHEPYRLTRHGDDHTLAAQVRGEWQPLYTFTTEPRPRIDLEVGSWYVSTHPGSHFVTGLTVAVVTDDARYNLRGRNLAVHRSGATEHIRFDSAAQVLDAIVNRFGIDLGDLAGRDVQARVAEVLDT

Compound	Activity [1]	inhibition at 500 µg/mL [2]
NNC(=O)c1ccncc1	Active	
CC(=O)O[C@@H]1C=C2C(=O)O[C@@H](O)[C@]2(O)[C@@]2(C)CCCC(C)(C)[C@H]12		35%
